{
  "source": "patent US10031129B2",
  "about": "“G-protein coupled receptor polypeptides involved in sensory transduction” (The Regents of the University of California, priority 1998, dated 2018)",
  "key": {"[1]": {"molecular_target": "T1, mammalian γ-opiod receptor (Homo sapiens, UniProt P35372)", "T1 construct": "expressed in transfected cells; host or cells: HEK-293 line expressing SV40 T-antigen; CMV-γ-opiod and TK-Gα15 constructs", "T1 sequence (P35372 whole entry)": "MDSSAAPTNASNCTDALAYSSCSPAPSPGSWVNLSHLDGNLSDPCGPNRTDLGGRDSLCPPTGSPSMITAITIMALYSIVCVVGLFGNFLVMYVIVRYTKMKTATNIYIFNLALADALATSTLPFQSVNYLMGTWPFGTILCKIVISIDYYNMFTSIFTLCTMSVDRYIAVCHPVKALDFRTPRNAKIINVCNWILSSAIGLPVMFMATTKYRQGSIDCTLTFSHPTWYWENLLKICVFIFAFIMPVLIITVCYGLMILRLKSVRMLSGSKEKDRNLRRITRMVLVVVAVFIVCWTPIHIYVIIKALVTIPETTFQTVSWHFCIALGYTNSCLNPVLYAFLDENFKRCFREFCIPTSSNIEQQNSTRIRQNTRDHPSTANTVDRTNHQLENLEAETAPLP", "assay": "ligand-induced changes in [Ca2+]i in control cells expressing γ-opiod/Gα15", "type": "cell-based", "conditions": "HEK-293 control cells; dependent on Gα15; rapid onset", "description": "(§1) To determine the ligand selectivity of GPCR-B4, expression in heterologous cells was used. One issue for GPCR expression in heterologous cells is determining how to couple the GPCR to a G-protein and an appropriate signaling pathway. In this example, the G-protein subunit Gα15 was used, which promiscuously couples a wide range of GPCRs to the phospholipase C-mediated signaling pathway (Offermans & Simon, J. Biol. Chem. 270:15175-15180 (1995)). Consequently, receptor activity can be effectively measured by recording ligand-induced changes in [Ca^2+]i using fluorescent Ca^2+-indicator dyes and fluorometric imaging.\n(§2) To insure expression of GPCR-B4 in the plasma membrane, a variety of cell lines and expression vectors were tested. […] An HEK-293 line expressing SV40 T-antigen was co-transfected with a TK-Gα15, CMV-γ-opiod and a pEAK-10 episomal vector (Edge Biosystems) containing a EF1a-[B4-GPCR]construct. Transfection efficiencies were determined using CMV-GFP constructs."}, "GPCR-B4": {"molecular_target": "T2, GPCR-B4 (Rattus norvegicus, UniProt Q9Z0R7)", "T2 construct": "expressed in transfected cells; host or cells: HEK-293 line expressing SV40 T-antigen; pEAK-10 episomal vector (Edge Biosystems) with EF1a-[B4-GPCR] construct; TK-Gα15", "T2 sequence (Q9Z0R7 20-843)": "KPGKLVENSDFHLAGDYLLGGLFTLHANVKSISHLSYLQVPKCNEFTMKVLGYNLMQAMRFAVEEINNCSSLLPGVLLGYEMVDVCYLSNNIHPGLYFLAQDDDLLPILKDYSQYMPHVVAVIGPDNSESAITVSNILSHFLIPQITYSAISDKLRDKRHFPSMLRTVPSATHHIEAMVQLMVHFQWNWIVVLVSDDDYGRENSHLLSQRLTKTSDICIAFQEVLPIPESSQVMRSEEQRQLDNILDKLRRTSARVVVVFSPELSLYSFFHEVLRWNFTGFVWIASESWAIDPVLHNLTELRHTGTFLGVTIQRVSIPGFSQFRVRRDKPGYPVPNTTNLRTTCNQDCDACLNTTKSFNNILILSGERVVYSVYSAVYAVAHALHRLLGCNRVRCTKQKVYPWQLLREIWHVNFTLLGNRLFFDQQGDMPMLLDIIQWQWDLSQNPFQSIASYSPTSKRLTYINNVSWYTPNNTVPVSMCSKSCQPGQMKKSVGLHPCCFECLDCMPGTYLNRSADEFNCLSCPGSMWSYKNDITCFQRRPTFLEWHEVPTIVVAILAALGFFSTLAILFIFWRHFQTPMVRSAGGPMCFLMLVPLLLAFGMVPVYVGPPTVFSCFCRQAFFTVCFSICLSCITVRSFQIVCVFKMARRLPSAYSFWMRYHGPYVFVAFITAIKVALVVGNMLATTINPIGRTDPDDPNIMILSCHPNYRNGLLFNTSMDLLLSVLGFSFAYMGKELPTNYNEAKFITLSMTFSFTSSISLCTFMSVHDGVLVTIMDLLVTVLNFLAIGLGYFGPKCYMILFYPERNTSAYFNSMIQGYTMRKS", "assay": "ligand-induced changes in [Ca2+]i in HEK-293 cells expressing B4/Gα15 (fluorescent Ca2+-indicator dyes, fluorometric imaging)", "type": "cell-based", "conditions": "HEK-293 line expressing SV40 T-antigen; B4 receptor dependent", "description": "as §1, §2"}},
  "data": [
    {"molecule": "C[C@@H](NC(=O)[C@@H](N)Cc1ccc(O)cc1)C(=O)NCC(=O)N(C)[C@@H](Cc1ccccc1)C(=O)NCCO", "note": "[DAMGO]", "values": [
      {"measurement": "response (change in [Ca2+]i) of control cells expressing γ-opiod/Gα15", "setting": "[1]", "value": "respond robustly"}
    ]},
    {"molecule": "NC(=S)Nc1ccccc1", "note": "[PTC, phenylthiocarbamide]", "values": [
      {"measurement": "response (change in [Ca2+]i) of cells expressing B4/Gα15 or B4/Gα15/γ-opiod", "setting": "GPCR-B4", "value": "respond"}
    ]}
  ]
}
